The values below come from EPA's ToxValDB 9.5 (doi:10.2903/j.efsa.2016.4518).

In data set [1] the test system is Tagia sp. The settings on record: chronic/long-term; duration: 56 days; mortality.
Data set [2] concerns Anas platyrhynchos. The settings on record: reproductive; duration: 20 weeks.
Data set [3] relates to Apis mellifera. The settings on record: acute, mortality.
The test system of data set [4] is Pimephales promelas. The settings on record: chronic/long-term; duration: 264 days; other.
Data set [5] has as its system Canidae. Conditions: oral, Dog Other, hematological.
In data set [6] the test system is Hypoaspis aculeifer. Conditions: chronic/long-term; duration: 21 days; mortality.
Data set [7] deals with Colinus virginianus. Conditions: acute, oral, mortality.
The test system of data set [8] is Rattus norvegicus.
In data set [9] the test system is Bibionidae. The settings on record: chronic/long-term; duration: 28 days.
Data set [10] deals with Poecilus cupreus. Nature of the data set: LR50; higher = less toxic. The settings on record: not reported; duration: 19 days; mortality.
Data set [11] has as its system Typhlodromus pyri. The data set can be described thus: LR50; higher = less toxic. The settings on record: not reported; duration: 7 days; mortality.

In the case of `CON(C)C(=O)Nc1ccc(Cl)c(Cl)c1` [Linuron], the NOEC in [1] was 6.78 mg/kg; in [4], 97 µg/L; in data set [6], 3.39 mg/kg; in data set [9], 9.5 mg/kg. The no observed adverse effect level (NOAEL) is 13.9 mg/kg-day in [2]; 0.9 mg/kg-day in [5] (chronic, duration: 1 years); 0.9 mg/kg-day in [5] (subchronic, duration: 90 days); 0.8 mg/kg-day in data set [8] (reproduction developmental, body weight). The LD50 was over 97.8 µg/piece in data set [3] (dermal); over 112 µg/piece in data set [3] (oral, unspecified); 121 mg/kg-day in [7] (diet); 314 mg/kg-day in data set [7]; 1000 mg/kg in [8] (acute, oral, mortality). Also, in data set [8] (chronic, duration: 2 years, other), the LOAEL amounted to 1.3 mg/kg-day. In addition, the LR50 in data set [10] is over 927 g/ha; in [11], 42.7 g/ha.
